Experimental data from US20250387419A1, “PARP INHIBITOR-RESISTANT PATIENT TREATED WITH TH-302” (ASCENTAWITS PHARMACEUTICALS, LTD., priority 2021, published 2025).
“And” between values parts separate entries of the source, which are not always exact repeats. Equal entries are not always repeated. “Also recorded” adds a separate entry of the source.

How the values were obtained:
[1] = Safety (body weight) in Capan-1 CDX model (3.1); assay type: in vivo; set-up: Body weight: unit: g; conditions: for Body weight / Body weight change percentage: olaparib 100 mg/kg p.o. QD×30, TH-302 75 mg/kg i.v. QW×3
Protocol: Each nude female BALB/c mouse was subcutaneously inoculated at a lower portion of the right back with 5×10^5 Capan-1 cells resuspended in a 1:1 mixture of PBS and matrigel (0.1 ml per mouse). A total of 64 female mice were inoculated. The inoculation was conducted on Jun. […] The test drug olaparib group was orally and intragastrically administered, once daily for a total of 30 days. Efficacy was evaluated based on relative tumor growth inhibition (TGI) rates (%), and safety was evaluated based on body weight changes and deaths of the animals.

[2] = system: human pancreatic cancer Capan-1 subcutaneous xenograft model; assay: In-depth efficacy in olaparib-resistant pancreatic cancer Capan-1 CDX model (3.2); assay type: in vivo, mouse; conditions: for CR Rate: complete response, animals/group
Protocol: Protocol: Nude BALB/c mice were subcutaneously inoculated with human pancreatic cancer Capan-1 cells, establishing a human pancreatic cancer subcutaneous xenograft model. The mice were divided into 7 groups, 6 in each group: 100 mg/kg of the test drug olaparib as a monotherapy (Group 2); 50 mg/kg of TH-302 as a monotherapy (Group 3, QD); 100 mg/kg of TH-302 as a monotherapy (Group 4); 50 mg/kg of TH-302 as a monotherapy (Group 5, QW); 25 mg/kg of TH-302 as a monotherapy (Group 6); 25 mg/kg TH-302 in combination therapy with 100 mg/kg olaparib (Group 7); and 10% anhydrous ethanol+10% polyoxyethylene (35) castor oil+80% glucose injection solution D5W (pH 7.4) as a vehicle control (Group 1). The vehicle control group and the TH-302 test groups were all administered through tail vein injection. The 50 mg/kg TH-302 monotherapy group (Group 3, QD) was administered once daily for 3 consecutive days. After rest for 4 days and two weeks, the mice were again administered daily for another 3 consecutive days. TH-302 in all the 100 mg/kg (Group 4, QW), 50 mg/kg (Group 5, QW) and 25 mg/kg (Group 6, QW) TH-302 monotherapy groups and 25 mg/kg TH-302+100 mg/kg olaparib combination therapy group (Group 7) was administered once weekly for a total of three weeks. The test drug olaparib in all the groups was orally and intragastrically administered once daily for totally 30 days. Routes of administration, doses and regimens for the human pancreatic cancer Capan-1 animal model are specifically summarized in Table 12.
Tumor growth of the treatment and control groups on different days in the experiment were recorded and shown in Table 13, and corresponding tumor volume growth curves of the mice in respective groups are shown in FIG. 7. Efficacy evaluation was conducted based on relative tumor proliferation rates and relative tumor growth inhibition rates, and the results of efficacy analysis are summarized in Table 14. Body weight changes of the treatment and control groups after administration were recorded to investigate safety of the groups in the human pancreatic cancer Capan-1 subcutaneous model. Body weight change rates of the mice on Day 43 are shown in Table 15, and curves showing body weights of the treatment groups over time are plotted in FIG. 8.
A relative tumor proliferation rate, denoted as T/C %, is calculated as a relative tumor volume or a tumor weight of a treatment group as a percentage of that of the control group at a certain point of time according to:
T/C %=TRTV/CRTV×100% (where TRTV denotes average RTV of the treatment group; CRTV represents average RTV of the vehicle control group; and RTV=Vt/V0, where V0 is a tumor volume of an animal at the time of randomization, and Vt is a tumor volume of the animal after treatment); or
T/C %=TTW/CTW×100% (where TTW is an average tumor weight of the treatment group at the end of the experiment, and CTW is an average tumor weight of the vehicle control group at the end of the experiment).
A relative tumor growth inhibition rate, denoted as TGI (%), is calculated according to: TGI %=(1−T/C)×100% (where T and C are relative tumor volumes (RTV) or tumor weights (TW) of a treatment group and the control group, respectively, at a particular point of time).

[3] = Group 3: 50 mg/kg i.v. QD, Day 43
[4] = Group 4: 100 mg/kg i.v. QW×3, Day 43
[5] = Group 5: 50 mg/kg i.v. QW×3, Day 43
[6] = Group 6: 25 mg/kg i.v. QW×3, Day 43

In the case of Cn1c(COP(=O)(NCCBr)NCCBr)cnc1[N+](=O)[O-] [TH-302, evofosfamide], the Body weight ([1]; Day 5) is reported as 22.7, the “Body weight change percentage” value ([1]; Day 5) is reported as 0.00% and the Body weight ([1]; Day 7) is reported as 22.0. The “Body weight change percentage” value ([1]; Day 7) was −3.01%, the Body weight ([1]; Day 9) was 22.7 and the “Body weight change percentage” value ([1]; Day 9) was 0.18%. The Body weight ([1]; Day 12) was 23.4, the “Body weight change percentage” value ([1]; Day 12) was 2.90% and the Body weight ([1]; Day 14) was 23.6. The “Body weight change percentage” value ([1]; Day 14) was 3.78%, the Body weight ([1]; Day 16) was 23.6 and the “Body weight change percentage” value ([1]; Day 16) was 4.07%. For the same molecule, the Body weight ([1]; Day 19) was 23.8, the “Body weight change percentage” value ([1]; Day 19) was 5.01% and the Body weight ([1]; Day 21) was 23.7. For the same molecule, the “Body weight change percentage” value ([1]; Day 21) was 4.49%, the Body weight ([1]; Day 23) was 23.8 and the “Body weight change percentage” value ([1]; Day 23) was 4.78%. The Body weight ([1]; Day 26) was 23.3, the “Body weight change percentage” value ([1]; Day 26) was 2.63% and the Body weight ([1]; Day 28) was 24.1. For the same molecule, the “Body weight change percentage” value ([1]; Day 28) was 6.22%, the Body weight ([1]; Day 30) was 24.3 and the “Body weight change percentage” value ([1]; Day 30) was 6.96%. The Body weight ([1]; Day 33) was 24.7, the “Body weight change percentage” value ([1]; Day 33) was 8.63% and the Body weight ([1]; Day 35) was 24.7. For the same molecule, the “Body weight change percentage” value ([1]; Day 35) was 8.65%, the “Body weight loss / tolerance” value ([1]; olaparib 100 mg/kg, TH-302 75 mg/kg, combination 100 + 75 mg/kg) was “No significant body weight losses; also recorded: good tolerance” and the Tumor volume ([2]; Group 3: 50 mg/kg i.v. QD, Day 9) was 194.10 mm^3. It also gave a Tumor volume ([2]; Group 3: 50 mg/kg i.v. QD, Day 13) of 138.02 mm^3, a Tumor volume ([2]; Group 3: 50 mg/kg i.v. QD, Day 16) of 124.61 mm^3 and a Tumor volume ([2]; Group 3: 50 mg/kg i.v. QD, Day 20) of 105.24 mm^3. The Tumor volume ([2]; Group 3: 50 mg/kg i.v. QD, Day 23) was 107.93 mm^3, the Tumor volume ([2]; Group 3: 50 mg/kg i.v. QD, Day 27) was 110.53 mm^3 and the Tumor volume ([2]; Group 3: 50 mg/kg i.v. QD, Day 30) was 123.45 mm^3. For the same molecule, the Tumor volume ([2]; Group 3: 50 mg/kg i.v. QD, Day 34) was 101.47 mm^3, the Tumor volume ([2]; Group 3: 50 mg/kg i.v. QD, Day 37) was 114.69 mm^3 and the Tumor volume ([2]; Group 3: 50 mg/kg i.v. QD, Day 41) was 134.32 mm^3. For the same molecule, the “Relative Tumor Volume (x ± S)” value [2, 3] was 0.99 ± 0.22, the “T/C (%)” value [2, 3] was 10.83% and the “TGI (%)” value [2, 3] was 89.17%. For the same molecule, the Tumor volume ([2]; Group 3: 50 mg/kg i.v. QD, Day 43, 50 mg/kg) was 146.99 mm^3 and 146.99 ± 37.96 mm^3, the “CR Rate” value [2, 3] was 0/6 and the Tumor volume ([2]; Group 3: 50 mg/kg i.v. QD×3, 4 days off, 2 weeks off, QD×3, Day 6) was 146.76 mm^3. The Tumor volume ([2]; Group 4: 100 mg/kg i.v. QW×3, Day 6) was 146.05 mm^3, the Tumor volume ([2]; Group 4: 100 mg/kg i.v. QW×3, Day 9) was 193.80 mm^3 and the Tumor volume ([2]; Group 4: 100 mg/kg i.v. QW×3, Day 13) was 123.87 mm^3. It also gave a Tumor volume ([2]; Group 4: 100 mg/kg i.v. QW×3, Day 16) of 112.22 mm^3, a Tumor volume ([2]; Group 4: 100 mg/kg i.v. QW×3, Day 20) of 85.08 mm^3 and a Tumor volume ([2]; Group 4: 100 mg/kg i.v. QW×3, Day 23) of 59.95 mm^3. For the same molecule, the Tumor volume ([2]; Group 4: 100 mg/kg i.v. QW×3, Day 27) was 49.03 mm^3, the Tumor volume ([2]; Group 4: 100 mg/kg i.v. QW×3, Day 30) was 48.35 mm^3 and the Tumor volume ([2]; Group 4: 100 mg/kg i.v. QW×3, Day 34) was 65.87 mm^3. The Tumor volume ([2]; Group 4: 100 mg/kg i.v. QW×3, Day 37) was 75.54 mm^3, the Tumor volume ([2]; Group 4: 100 mg/kg i.v. QW×3, Day 41) was 106.10 mm^3 and the “Relative Tumor Volume (x ± S)” value [2, 4] was 0.83 ± 0.17. For the same molecule, the “T/C (%)” value [2, 4] was 9.11%, the “TGI (%)” value [2, 4] was 90.89% and the Tumor volume ([2]; Group 4: 100 mg/kg i.v. QW×3, Day 43, 100 mg/kg) was 124.68 mm^3 and 124.68 ± 31.35 mm^3. For the same molecule, the “CR Rate” value [2, 4] was 0/6, the Tumor volume ([2]; Group 5: 50 mg/kg i.v. QW×3, Day 6) was 147.11 mm^3 and the Tumor volume ([2]; Group 5: 50 mg/kg i.v. QW×3, Day 9) was 182.60 mm^3. The Tumor volume ([2]; Group 5: 50 mg/kg i.v. QW×3, Day 13) was 178.72 mm^3, the Tumor volume ([2]; Group 5: 50 mg/kg i.v. QW×3, Day 16) was 181.66 mm^3 and the Tumor volume ([2]; Group 5: 50 mg/kg i.v. QW×3, Day 20) was 181.56 mm^3. For the same molecule, the Tumor volume ([2]; Group 5: 50 mg/kg i.v. QW×3, Day 23) was 156.49 mm^3, the Tumor volume ([2]; Group 5: 50 mg/kg i.v. QW×3, Day 27) was 152.57 mm^3 and the Tumor volume ([2]; Group 5: 50 mg/kg i.v. QW×3, Day 30) was 152.13 mm^3. It also gave a Tumor volume ([2]; Group 5: 50 mg/kg i.v. QW×3, Day 34) of 176.07 mm^3, a Tumor volume ([2]; Group 5: 50 mg/kg i.v. QW×3, Day 37) of 198.42 mm^3 and a Tumor volume ([2]; Group 5: 50 mg/kg i.v. QW×3, Day 41) of 221.92 mm^3. The “Complete tumor inhibition rate” value [2, 5] was 33.3%, the “Relative Tumor Volume (x ± S)” value [2, 5] was 1.81 ± 0.64 and the “T/C (%)” value [2, 5] was 19.82%. The “TGI (%)” value [2, 5] was 80.18%, the Tumor volume ([2]; Group 5: 50 mg/kg i.v. QW×3, Day 43, 50 mg/kg) was 263.45 mm^3 and 263.45 ± 86.54 mm^3 and the “CR Rate” value [2, 5] was 2/6. The Tumor volume ([2]; Group 6: 25 mg/kg i.v. QW×3, Day 6) was 146.81 mm^3, the Tumor volume ([2]; Group 6: 25 mg/kg i.v. QW×3, Day 9) was 213.60 mm^3 and the Tumor volume ([2]; Group 6: 25 mg/kg i.v. QW×3, Day 13) was 233.94 mm^3. The Tumor volume ([2]; Group 6: 25 mg/kg i.v. QW×3, Day 16) was 277.57 mm^3, the Tumor volume ([2]; Group 6: 25 mg/kg i.v. QW×3, Day 20) was 295.46 mm^3 and the Tumor volume ([2]; Group 6: 25 mg/kg i.v. QW×3, Day 23) was 328.33 mm^3. The Tumor volume ([2]; Group 6: 25 mg/kg i.v. QW×3, Day 27) was 373.13 mm^3, the Tumor volume ([2]; Group 6: 25 mg/kg i.v. QW×3, Day 30) was 454.44 mm^3 and the Tumor volume ([2]; Group 6: 25 mg/kg i.v. QW×3, Day 34) was 705.45 mm^3. The Tumor volume ([2]; Group 6: 25 mg/kg i.v. QW×3, Day 37) was 886.42 mm^3, the Tumor volume ([2]; Group 6: 25 mg/kg i.v. QW×3, Day 41) was 1344.26 mm^3 and the “Relative Tumor Volume (x ± S)” value [2, 6] was 11.12 ± 3.31. For the same molecule, the “T/C (%)” value [2, 6] was 121.59%, the “TGI (%)” value [2, 6] was −21.59% and the Tumor volume ([2]; Group 6: 25 mg/kg i.v. QW×3, Day 43, 25 mg/kg) was 1521.33 mm^3 and 1521.33 ± 349.46 mm^3. The “CR Rate” value [2, 6] was 0/6.
